According to PubChem BioAssay AID248 (DTP/NCI, 2004):
“And” between values parts separate entries of the source, which are not always exact repeats. Identical values can stand only once. Toxic doses and inconclusive results are not listed. No stated cut-off is given here; in the data, active means T/C of 150% or more; inactive means T/C below 125%.

Tested on: L1210 leukemia ip in BDF1 mice, survival T/C
Test: NCI In Vivo Anticancer Drug Screen. Data for tumor model L1210 Leukemia (intraperitoneal) in B6D2F1 (BDF1) mice
Conditions: endpoint: mean survival time, higher = longer survival
How it was run: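 Antitumor effect is assessed in tumor-bearing animals. Survival in the compound arm is compared with a vehicle-dosed control arm and expressed as their quotient.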

[1] = dose: 100.0 mg/kg/injection, schedule: Q04DX003 (ip), vehicle: saline with Tween-80
[2] = dose: 200.0 mg/kg/injection, schedule: Q04DX003 (ip), vehicle: saline with Tween-80
[3] = dose: 100.0 mg/kg/injection, schedule: Q04DX003 (ip), vehicle: saline
[4] = dose: 200.0 mg/kg/injection, schedule: Q04DX003 (ip), vehicle: saline
[5] = dose: 400.0 mg/kg/injection, schedule: Q04DX003 (ip), vehicle: saline
[6] = dose: 400.0 mg/kg/injection, schedule: Q04DX003 (ip), vehicle: saline with Tween-80

Measured: T/C

OCC1OC(n2cnc3c(NCCNc4ncnc5c4ncn5C4OC(CO)C(O)C4O)ncnc32)C(O)C1O (centres undefined)
inactive: dose: 50.0 mg/kg/injection, schedule: Q04DX002 (ip), vehicle: saline 102 % of control | dose: 100.0 mg/kg/injection, schedule: Q04DX002 (ip), vehicle: saline 110 % of control

CCOC(=O)C1C(C(=O)c2ccc(C)cc2)C2(Cl)C(Cl)=C(Cl)C1(Cl)C2(Cl)Cl (centres undefined)
inactive: dose: 100.0 mg/kg/injection, schedule: Q01DX009 (ip), vehicle: saline 96 % of control | dose: 200.0 mg/kg/injection, schedule: Q01DX009 (ip), vehicle: saline 91 % of control | dose: 400.0 mg/kg/injection, schedule: Q01DX009 (ip), vehicle: saline 98 % of control

COc1cc2ccc3c(c2cc1OC)C=NCC3
inactive: dose: 1.56 mg/kg/injection, schedule: Q04DX003 (ip), vehicle: saline 107 % of control | dose: 3.13 mg/kg/injection, schedule: Q01DX009 (ip), vehicle: saline 109 % of control | dose: 3.13 mg/kg/injection, schedule: Q04DX003 (ip), vehicle: saline 102 % of control | dose: 6.25 mg/kg/injection, schedule: Q01DX009 (ip), vehicle: saline 105 % of control | dose: 6.25 mg/kg/injection, schedule: Q04DX003 (ip), vehicle: saline 97 % of control | dose: 12.5 mg/kg/injection, schedule: Q04DX003 (ip), vehicle: saline 87 % of control

CC(=O)N1c2ccccc2Sc2cc(C(O)(C(F)(F)F)C(F)(F)F)ccc21
inactive: dose: 25.0 mg/kg/injection, schedule: Q01DX009 (ip), vehicle: saline with Tween-80 95 % of control | dose: 50.0 mg/kg/injection, schedule: Q01DX009 (ip), vehicle: saline with Tween-80 95 % of control | dose: 50.0 mg/kg/injection, schedule: Q04DX003 (ip), vehicle: saline with Tween-80 95 % of control | dose: 100.0 mg/kg/injection, schedule: Q01DX009 (ip), vehicle: saline with Tween-80 95 % of control | [1] 91 % of control | [2] 91 % of control

NC(=O)NOCC(N)C(=O)O (centres undefined)
inactive: [3] 102 % of control | [4] 102 % of control | [5] 97 % of control

CCOC(=O)C(C(C)=O)C(c1ccc(OCc2ccccc2)c(C)c1)C(C(C)=O)C(=O)OCC (centres undefined)
inactive: [3] 94 % of control | [4] 94 % of control | [5] 95 % of control

O=[N+]([O-])c1ccc(N2CCN(c3cccc(C(F)(F)F)c3)CC2)c([N+](=O)[O-])c1
inactive: [1] 105 % of control | [2] 102 % of control | [6] 100 % of control

CCOC(=O)Cc1cc(=O)n(C)c2ccccc12
inactive: dose: 100.0 mg/kg/injection, schedule: Q01DX001 (ip), vehicle: other 97 % of control | dose: 200.0 mg/kg/injection, schedule: Q01DX001 (ip), vehicle: other 97 % of control | dose: 400.0 mg/kg/injection, schedule: Q01DX001 (ip), vehicle: other 103 % of control

COc1ccc(O)c2c1C(=O)c1ccccc1C2=O
inactive: dose: 25.0 mg/kg/injection, schedule: Q01DX009 (ip), vehicle: other 93 % of control | dose: 50.0 mg/kg/injection, schedule: Q01DX009 (ip), vehicle: other 95 % of control | dose: 100.0 mg/kg/injection, schedule: Q01DX009 (ip), vehicle: other 104 % of control | dose: 200.0 mg/kg/injection, schedule: Q01DX009 (ip), vehicle: other 102 % of control | dose: 400.0 mg/kg/injection, schedule: Q01DX009 (ip), vehicle: other 104 % of control

O=C1CSCc2c1ccc1ccccc21
inactive: [1] 106 % of control | [2] 100 % of control | [6] 108 % of control

COS(C)(=O)=O
inactive: dose: 12.5 mg/kg/injection, schedule: Q01DX010 (ip), vehicle: saline 101 % of control and 91 % of control | dose: 25.0 mg/kg/injection, schedule: Q01DX010 (ip), vehicle: saline 102 % of control and 106 % of control | dose: 25.0 mg/kg/injection, schedule: Q01DX Z (ip), vehicle: carboxymethylcellulose (CMC) 97 % of control | dose: 50.0 mg/kg/injection, schedule: Q01DX010 (ip), vehicle: saline 96 % of control and 106 % of control | dose: 50.0 mg/kg/injection, schedule: Q01DX Z (ip), vehicle: carboxymethylcellulose (CMC) 106 % of control | dose: 100.0 mg/kg/injection, schedule: Q01DX010 (ip), vehicle: saline 95 % of control and 102 % of control | dose: 100.0 mg/kg/injection, schedule: Q01DX Z (ip), vehicle: carboxymethylcellulose (CMC) 95 % of control
